Reference: article PMC6407917, “Identification of GSK3186899/DDD853651 as a Preclinical Development Candidate for the Treatment of Visceral Leishmaniasis” (Journal of Medicinal Chemistry, 2018)

Legend:
[1] = molecular target: STK38 (Homo sapiens, UniProt Q15208); test: biochemical; design: species or system HEK293/K-562/placenta mixed human extract; Kinobeads chemoproteomic competition binding, quantified by TMT LC-MS/MS, dose response up to 20 uM
[2] = molecular target: NEK2 (Homo sapiens, UniProt P51955); test: biochemical; design: species or system HEK293/K-562/placenta mixed human extract; Kinobeads chemoproteomic competition binding, quantified by TMT LC-MS/MS, dose response up to 20 uM
[3] = molecular target: EPHA5 (Homo sapiens, UniProt P54756); test: biochemical; design: species or system HEK293/K-562/placenta mixed human extract; Kinobeads chemoproteomic competition binding, quantified by TMT LC-MS/MS, dose response up to 20 uM
[4] = molecular target: NEK3 (Homo sapiens, UniProt P51956); test: biochemical; design: species or system HEK293/K-562/placenta mixed human extract; Kinobeads chemoproteomic competition binding, quantified by TMT LC-MS/MS, dose response up to 20 uM
[5] = molecular target: Cdk4 (Homo sapiens, UniProt P11802); conditions: mixed human cell/tissue extract; maximum concentration 20 μM
[6] = molecular target: CYP3A4 (Homo sapiens, UniProt P08684); test: midazolam marker-substrate inhibition assay, LC-MS/MS; assay type: biochemical
From the text: midazolam marker-substrate inhibition assay, LC-MS/MS on CYP3A4

Sequence of EPHA5 (P54756 whole entry): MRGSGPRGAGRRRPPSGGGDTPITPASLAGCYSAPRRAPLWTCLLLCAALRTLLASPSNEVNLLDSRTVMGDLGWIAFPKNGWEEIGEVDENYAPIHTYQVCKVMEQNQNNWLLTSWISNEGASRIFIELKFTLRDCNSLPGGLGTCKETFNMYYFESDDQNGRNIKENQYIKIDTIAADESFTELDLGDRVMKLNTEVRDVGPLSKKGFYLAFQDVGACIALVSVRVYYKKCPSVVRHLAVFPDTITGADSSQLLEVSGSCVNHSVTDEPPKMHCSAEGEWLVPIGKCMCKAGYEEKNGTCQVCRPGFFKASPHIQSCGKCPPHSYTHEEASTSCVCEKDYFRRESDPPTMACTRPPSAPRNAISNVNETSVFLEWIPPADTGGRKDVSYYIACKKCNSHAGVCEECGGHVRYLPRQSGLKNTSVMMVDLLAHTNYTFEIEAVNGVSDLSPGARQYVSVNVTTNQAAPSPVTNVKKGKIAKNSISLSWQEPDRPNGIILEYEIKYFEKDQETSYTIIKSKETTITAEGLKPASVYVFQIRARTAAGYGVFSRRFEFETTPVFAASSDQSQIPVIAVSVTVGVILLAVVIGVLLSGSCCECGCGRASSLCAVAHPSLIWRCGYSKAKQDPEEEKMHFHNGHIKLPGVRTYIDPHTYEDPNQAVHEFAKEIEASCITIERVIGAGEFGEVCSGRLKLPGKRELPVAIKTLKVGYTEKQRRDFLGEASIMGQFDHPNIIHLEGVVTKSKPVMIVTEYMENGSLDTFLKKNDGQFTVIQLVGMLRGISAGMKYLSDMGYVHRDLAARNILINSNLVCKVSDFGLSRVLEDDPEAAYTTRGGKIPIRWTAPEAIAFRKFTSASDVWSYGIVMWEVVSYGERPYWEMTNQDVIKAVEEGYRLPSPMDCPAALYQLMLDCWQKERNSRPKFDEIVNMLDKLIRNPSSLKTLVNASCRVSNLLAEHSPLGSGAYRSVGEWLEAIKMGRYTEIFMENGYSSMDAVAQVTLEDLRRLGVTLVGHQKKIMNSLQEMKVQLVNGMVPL
Sequence of Cdk4 (P11802 2-303): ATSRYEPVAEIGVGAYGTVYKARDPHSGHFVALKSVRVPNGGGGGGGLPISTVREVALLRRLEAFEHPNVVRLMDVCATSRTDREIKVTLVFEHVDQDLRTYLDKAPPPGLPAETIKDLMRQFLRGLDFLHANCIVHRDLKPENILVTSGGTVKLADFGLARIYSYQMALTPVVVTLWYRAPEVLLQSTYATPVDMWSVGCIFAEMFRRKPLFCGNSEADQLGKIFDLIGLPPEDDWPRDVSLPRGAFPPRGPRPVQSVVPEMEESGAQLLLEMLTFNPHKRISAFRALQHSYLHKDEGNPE
Sequence of NEK3 (P51956 whole entry): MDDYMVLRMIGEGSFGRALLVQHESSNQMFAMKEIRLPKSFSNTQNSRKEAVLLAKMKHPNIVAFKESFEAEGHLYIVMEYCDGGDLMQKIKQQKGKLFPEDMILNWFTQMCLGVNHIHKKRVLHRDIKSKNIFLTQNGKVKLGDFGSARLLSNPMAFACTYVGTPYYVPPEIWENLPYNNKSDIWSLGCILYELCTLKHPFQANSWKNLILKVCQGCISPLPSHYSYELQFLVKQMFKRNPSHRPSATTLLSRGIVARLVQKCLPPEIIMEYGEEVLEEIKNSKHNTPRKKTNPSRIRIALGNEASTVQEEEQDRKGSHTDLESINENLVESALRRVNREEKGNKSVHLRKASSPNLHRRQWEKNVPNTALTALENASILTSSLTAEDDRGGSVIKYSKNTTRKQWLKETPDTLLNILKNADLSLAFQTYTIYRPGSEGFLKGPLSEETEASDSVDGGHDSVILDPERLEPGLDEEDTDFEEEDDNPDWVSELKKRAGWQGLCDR
Sequence of NEK2 (P51955 whole entry): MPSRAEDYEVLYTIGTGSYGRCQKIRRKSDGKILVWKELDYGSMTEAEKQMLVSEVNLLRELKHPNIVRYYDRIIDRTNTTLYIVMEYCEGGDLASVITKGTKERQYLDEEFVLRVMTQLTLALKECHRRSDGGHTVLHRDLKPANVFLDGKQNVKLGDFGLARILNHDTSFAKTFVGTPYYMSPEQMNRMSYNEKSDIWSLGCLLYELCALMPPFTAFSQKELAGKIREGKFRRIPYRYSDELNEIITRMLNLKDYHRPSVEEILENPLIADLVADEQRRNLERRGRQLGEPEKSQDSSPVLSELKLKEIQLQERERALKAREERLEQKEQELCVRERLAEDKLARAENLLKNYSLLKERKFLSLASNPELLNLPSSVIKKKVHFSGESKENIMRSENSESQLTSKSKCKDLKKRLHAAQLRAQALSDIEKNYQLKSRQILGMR
Sequence of STK38 (Q15208 whole entry): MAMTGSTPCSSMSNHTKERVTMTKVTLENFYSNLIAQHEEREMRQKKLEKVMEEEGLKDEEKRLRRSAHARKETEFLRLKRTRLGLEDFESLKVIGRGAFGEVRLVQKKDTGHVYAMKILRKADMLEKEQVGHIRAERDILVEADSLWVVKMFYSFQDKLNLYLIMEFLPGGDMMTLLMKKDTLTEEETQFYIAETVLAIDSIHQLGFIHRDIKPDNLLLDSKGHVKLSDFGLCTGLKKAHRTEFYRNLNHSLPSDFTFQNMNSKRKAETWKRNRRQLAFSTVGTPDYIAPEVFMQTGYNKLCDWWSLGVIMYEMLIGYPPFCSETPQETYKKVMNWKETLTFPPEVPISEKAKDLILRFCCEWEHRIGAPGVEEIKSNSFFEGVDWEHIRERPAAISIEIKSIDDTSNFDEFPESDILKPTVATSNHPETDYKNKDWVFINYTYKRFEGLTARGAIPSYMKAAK
Sequence of CYP3A4 (P08684 2-503): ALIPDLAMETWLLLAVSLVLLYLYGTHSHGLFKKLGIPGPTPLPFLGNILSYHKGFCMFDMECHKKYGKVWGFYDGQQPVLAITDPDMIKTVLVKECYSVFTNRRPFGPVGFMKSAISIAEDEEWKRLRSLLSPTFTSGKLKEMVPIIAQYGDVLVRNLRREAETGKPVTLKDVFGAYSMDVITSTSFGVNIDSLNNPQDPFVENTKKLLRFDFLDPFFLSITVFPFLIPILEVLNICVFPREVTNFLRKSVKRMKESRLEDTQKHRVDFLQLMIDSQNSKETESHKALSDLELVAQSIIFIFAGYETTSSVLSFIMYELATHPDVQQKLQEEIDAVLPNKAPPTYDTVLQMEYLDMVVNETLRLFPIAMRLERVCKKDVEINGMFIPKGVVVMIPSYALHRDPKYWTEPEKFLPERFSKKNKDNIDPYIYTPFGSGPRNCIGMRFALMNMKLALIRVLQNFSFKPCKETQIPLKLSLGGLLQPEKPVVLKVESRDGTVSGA

Row | IC50 [1] | IC50 [2] | IC50 [3] | IC50 [4] | SMILES | IC50 [5] | IC50 [6]
1 | ≥ 20 µM | ≥ 20 µM | ≥ 20 µM | ≥ 20 µM | COc1ccccc1-c1n[nH]c2nc(N[C@H]3CC[C@H](NS(=O)(=O)CCC(F)(F)F)CC3)nc(OC)c12 [compound 31, 3,3,3-Trifluoro-N-(trans-4-((4-methoxy-3-(2-methoxyphenyl)-1H-pyrazolo[3,4-d]pyrimidin-6-yl)amino)cyclohexyl)propane-1-sulfonamide] | – | –
2 | – | – | – | – | COc1nc(N[C@H]2CC[C@H](NS(=O)(=O)CC(C)C)CC2)nc2[nH]nc(N3CCOC[C@H]3C)c12 [compound 39, N-(trans-4-((4-Methoxy-3-((R)-3-methylmorpholino)-1H-pyrazolo[3,4-d]pyrimidin-6-yl)amino)cyclohexyl)-2-methylpropane-1-sulfonamide] | > 20 µM | > 39.8 µM
